Measurements as given in patent US7838288B2, “Modulators of odorant receptors” (Duke University, priority 2004, dated 2010).
Entries after “also recorded” stand apart in the source; their conditions may differ.

Assays:
OREG = target: T1, OREG (Mus musculus, UniProt Q920P2); assay: cAMP assay, OREG; format: cell-based; details: OREG transfected; Hana3A cells vs 293T cells expressing Gαolf
T1 construct: expressed in transfected cells; host or cells: Hana3A cells, or HEK293T cells co-transfected with Golf
T1 sequence (Q920P2 1-313): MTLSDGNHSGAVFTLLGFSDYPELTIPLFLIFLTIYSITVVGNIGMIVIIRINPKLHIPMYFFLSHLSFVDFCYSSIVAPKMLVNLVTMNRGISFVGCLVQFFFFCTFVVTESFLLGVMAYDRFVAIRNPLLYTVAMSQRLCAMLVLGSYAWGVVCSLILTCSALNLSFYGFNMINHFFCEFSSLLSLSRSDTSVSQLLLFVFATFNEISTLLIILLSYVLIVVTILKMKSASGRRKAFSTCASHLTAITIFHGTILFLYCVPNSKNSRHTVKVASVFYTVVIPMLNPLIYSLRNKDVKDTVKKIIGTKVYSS
Description: In order to confirm the increased OR function in the presence of REEP1, RTP1 and RTP2, the amount of cAMP upon ligand stimulation was measured using 293T cells expressing Gαolf and Hana3A cells. […] In contrast, when the β2 adrenergic receptor was expressed and isoproterenol was used, no significant differences in cAMP production were observed (see FIG. 8E). The present invention is not limited to a particular mechanism. Indeed, an understanding of the mechanism is not necessary to practice the present invention. Nonetheless, this further supports a specific role of the accessory proteins in functional OR expression.
(§1) Dual-Glo system (Promega) for luciferase assay was used. CRE-Luciferase (Stratagene) was used to measure the receptor activities. Renilla luciferase driven by constitutively active SV40 promoter (pRL-SV40: Promega) was used as an internal control. Cells were plated on poly-D-lysine coated 96 well plates (BIOCOAT, Beckton Dickinson). […] Luminescence was measured using Wallac Victor 1420 (Perkin-Elmer). Normalized luciferase activity was calculated as [Luc (N)-Luc (0)]/RL (N), where Luc (N)=Luminescent count of a certain well, Luc (0)=Luminescent count without odorant for each OR, and RL (N)=Luminescent count of Renilla Luciferase of each well. […]

[1] = target: T2, mouse odorant receptor OREG (Mus musculus, UniProt Q920P2); assay: CRE-luciferase reporter gene assay, OREG; format: cell-based
T2 construct: expressed in transfected cells; host or cells: 293T cells (with or without co-transfected REEP1/RTP1/RTP2) and Hana3A cells (293T stably expressing mouse REEP1, RTP1, RTP2, Galpha-olf)
T2 sequence (Q920P2 1-313): T1 sequence (Q920P2 1-313)
Description: Poor odorant evoked signaling activity in heterologous cell culture systems expressing ORs has been attributed to the poor cell surface expression of ORs. The identification of REEP and/or RTP allowed a direct assessment of this issue. A luciferase reporter gene assay was employed in which a cAMP responsive element (CRE) mediated luciferase gene expression (see FIG. 8A). Because OR activation leads to an increase in cAMP, activation of the mouse odorant receptor OREG by its ligand eugenol was measured in the presence and absence of REEP and/or RTP (see, e.g., Kajiya, K., et al. (2001) J Neurosci 21, 6018-6025; Touhara, K., et al., (1999) Proc Natl Acad Sci USA 96, 4040-4045; each herein incorporated by reference in their entireties). As reported previously, eugenol increased levels of OREG dependent luciferase activity (see, e.g., Katada, S., et al. (2003) Biochem Biophys Res Commun 305, 964-969; herein incorporated by reference in its entirety).
(§2) To facilitate analysis of odorant-OR interactions, 293T cell lines were established which stably express REEP1, RTP1, RTP2 and Gαolf, the G protein alpha subunit that couples to OR (see, e.g., Belluscio, L., et al. (1998) Neuron 20, 69-81; Jones, D. T., and Reed, R. R. (1989). Science 244, 790-795; each herein incorporated by reference in their entireties). To establish such cells, linearized expression vectors containing mouse REEP1, RTP1, RTP2 and Gαolf ORFs were transfected into 293T cells with PGK-Pac (puromycin resistant gene) (see, e.g., Watanabe, S., et al. (1995) Biochem Biophys Res Commun 213, 130-137; herein incorporated by reference in its entirety). […] Enhanced cell-surface expression was observed when OREG or other ORs were transfected in Hana3A cells and immunostained (see FIG. 10). […] Expression of Gαolf alone in 293T cells had little or no effect on OR activation using this assay.
Dual-Glo system (Promega) for luciferase assay was used. CRE-Luciferase (Stratagene) was used to measure the receptor activities. Renilla luciferase driven by constitutively active SV40 promoter (pRL-SV40: Promega) was used as an internal control. Cells were plated on poly-D-lysine coated 96 well plates (BIOCOAT, Beckton Dickinson). After 8 hours (for experiments shown in FIGS. 8B and 8C) or 12 hours (for experiments shown in FIG. 8D and FIG. 11) after transfection, the medium was replaced with CD293 chemically defined medium (Invitrogen) and the plates were incubated for one hour at 37 degrees C. The medium was replaced with 50 ul of odorant solutions dissolved in CD293 and incubated for 10 hours (for experiments shown in FIGS. 8B and 8C) or 4 hours (for experiments shown in FIG. 8D and FIG. 11) at 37 degrees C. The manufacture's protocol for measuring luciferase and Renilla luciferase activities was followed. Luminescence was measured using Wallac Victor 1420 (Perkin-Elmer). Normalized luciferase activity was calculated as [Luc (N)-Luc (0)]/RL (N), where Luc (N)=Luminescent count of a certain well, Luc (0)=Luminescent count without odorant for each OR, and RL (N)=Luminescent count of Renilla Luciferase of each well. For cAMP assays, cells were plated onto 24-well plate. […]. Prism software (Graphpad) was used for data analysis.

[2] = system: olfactory neurons S6 and S79; details: previous studies (Malnic 1999); cited from earlier work
OR-S6/S79 = assay: CRE-luciferase reporter gene assay, OR-S6/S79; format: cell-based, mouse; details: Hana3A cells
Description: Four ORs (S6/79, S18, S46 and S50) previously assayed using other techniques (see, e.g., Malnic, B., et al. (1999) Cell 96, 713-723; herein incorporated by reference in its entirety) were tested against an assay panel of aliphatic alcohols, aldehydes and acids and some other odorants. Additionally, five “orphan” class I ORs (MOR23-1, MOR31-4, MOR31-6, MOR32-5 and MOR32-11) whose cognate ligands were unknown were tested. At a suprathreshold concentration of 100 uM, all these ORs were odorant selective, responding to only a small subset of the odorants tested (see FIG. 11A). This specificity was retained at lower, more physiologically relevant concentrations. Many of these ORs responded to odorants present in micromolar concentrations. The cell-surface expression of these ORs by living-cell immunofluorescence were evaluated. Some ORs (S18, MOR31-4, MOR31-6 and MOR32-5) were strongly expressed while other ORs (S6, S50, MOR23-1, MOR32-11) were weakly expressed (see FIG. 12). The present invention is not limited to a particular mechanism. Indeed, an understanding of the mechanism is not necessary to practice the present invention. […] Finally, two additional orphan class II ORs, MOR203-1 and olfr62, were tested against a panel of 139 odorants. […] Olfr62 responded to coumarine and piperonal (see FIG. 11C). […] When parental 293T cells for these ORs were used in this luciferase assay, little or no response to the odorants was observed. The present invention is not limited to a particular mechanism. Indeed, an understanding of the mechanism is not necessary to practice the present invention.
An expression system has been established that permits rapid identification of ligands for ORs. This system was tested with twelve ORs. Four of the tested ORs (S6/S79, S18, S46, and S50) were expressed in single olfactory neurons responding to aliphatic odorants (see, e.g., Malnic, B., et al. (1999) Cell 96, 713-723; herein incorporated by reference in its entirety). The response profiles of OR-S50, but not that of OR-S18 agreed with the previous report (see, e.g., Malnic, B., et al. (1999) Cell 96, 713-723; herein incorporated by reference in its entirety). […] In experiments conducted during the course of the present invention, OR-S6/S79 responded to nonanedioic acid but not to heptanoic acid or octanoic acid. The present invention is not limited to a particular mechanism. […] When multiple single olfactory neurons that expressed the same OR were recorded against the same set of odorants using calcium imaging, their response profiles were similar but different (see, e.g., Bozza, T., et al. (2002) J Neurosci 22, 3033-3043; herein incorporated by reference in its entirety).
(§3) Dual-Glo system (Promega) for luciferase assay was used. […] Luminescence was measured using Wallac Victor 1420 (Perkin-Elmer). […]

OR-S50 = assay: CRE-luciferase reporter gene assay, OR-S50; format: cell-based, mouse
Description: as §2
as §1, with “activities.” for “activities. Renilla luciferase driven by constitutively active SV40 promoter (pRL-SV40: Promega) was used as an internal control. Cells were plated on poly-D-lysine coated 96 well plates (BIOCOAT, Beckton Dickinson).”

MOR31-4 = assay: CRE-luciferase reporter gene assay, MOR31-4; format: cell-based, mouse; details: Hana3A cells
Description: (§4) Four ORs (S6/79, S18, S46 and S50) previously assayed using other techniques (see, e.g., Malnic, B., et al. (1999) Cell 96, 713-723; herein incorporated by reference in its entirety) were tested against an assay panel of aliphatic alcohols, aldehydes and acids and some other odorants. Additionally, five “orphan” class I ORs (MOR23-1, MOR31-4, MOR31-6, MOR32-5 and MOR32-11) whose cognate ligands were unknown were tested. At a suprathreshold concentration of 100 uM, all these ORs were odorant selective, responding to only a small subset of the odorants tested (see FIG. 11A). This specificity was retained at lower, more physiologically relevant concentrations. Many of these ORs responded to odorants present in micromolar concentrations. The cell-surface expression of these ORs by living-cell immunofluorescence were evaluated. Some ORs (S18, MOR31-4, MOR31-6 and MOR32-5) were strongly expressed while other ORs (S6, S50, MOR23-1, MOR32-11) were weakly expressed (see FIG. 12). […]
(§5) Dual-Glo system (Promega) for luciferase assay was used. […] Luminescence was measured using Wallac Victor 1420 (Perkin-Elmer). Normalized luciferase activity was calculated as [Luc (N)-Luc (0)]/RL (N), where Luc (N)=Luminescent count of a certain well, Luc (0)=Luminescent count without odorant for each OR, and RL (N)=Luminescent count of Renilla Luciferase of each well. […]

MOR203-1 = assay: CRE-luciferase reporter gene assay, MOR203-1; format: cell-based, mouse; details: Hana3A cells
Description: as §4, §5

OR-S46 = assay: CRE-luciferase reporter gene assay, OR-S46; format: cell-based, mouse; details: Hana3A cells
Description: To facilitate analysis of odorant-OR interactions, 293T cell lines were established which stably express REEP1, RTP1, RTP2 and Gαolf, the G protein alpha subunit that couples to OR (see, e.g., Belluscio, L., et al. (1998) Neuron 20, 69-81; Jones, D. T., and Reed, R. R. (1989). Science 244, 790-795; each herein incorporated by reference in their entireties). To establish such cells, linearized expression vectors containing mouse REEP1, RTP1, RTP2 and Gαolf ORFs were transfected into 293T cells with PGK-Pac (puromycin resistant gene) (see, e.g., Watanabe, S., et al. (1995) Biochem Biophys Res Commun 213, 130-137; herein incorporated by reference in its entirety). […] Enhanced cell-surface expression was observed when OREG or other ORs were transfected in Hana3A cells and immunostained (see FIG. 10). […]
Four ORs (S6/79, S18, S46 and S50) previously assayed using other techniques (see, e.g., Malnic, B., et al. (1999) Cell 96, 713-723; herein incorporated by reference in its entirety) were tested against an assay panel of aliphatic alcohols, aldehydes and acids and some other odorants. […] The cell-surface expression of these ORs by living-cell immunofluorescence were evaluated. […]
as §3

MOR23-1 = assay: CRE-luciferase reporter gene assay, MOR23-1; format: cell-based, mouse; details: Hana3A cells
Description: as §4, §5

C=CCc1ccc(O)c(OC)c1 [eugenol, reference compound]
cAMP production (OREG): Enhanced cAMP production; also recorded: more cAMP was produced
luciferase induction ([1]; HA-OREG in 293T cells): Little luciferase induction was observed
luciferase activity ([1]; HA-OREG in Hana3A cells): an enhancement in luciferase activity was observed
OREG dependent luciferase activity ([1]; odorant applied, OREG in 293T cells with or without REEP and/or RTP): increased

CCCCCCC(=O)O [heptanoic acid, Heptanoic acid]
response of single olfactory neurons S6 and S79 to odorant [2]: only the olfactory neuron S79 responded
response of OR-S6/S79 to odorant (luciferase) (OR-S6/S79): not

O=C(O)CCCCCCCC(=O)O [nonanedioic acid]
luciferase response (OR-S50; OR-S50 in 293T cells): did not produce a luciferase response
luciferase activity (OR-S50; OR-S50 in Hana3A cells): robust luciferase activity
response of single olfactory neurons S6 and S79 to odorant [2]: both responded
response of OR-S6/S79 to odorant (luciferase) (OR-S6/S79): responded

CCCCCCCCC(=O)O [nonanoic acid, Nonanoic acid]
response of MOR31-4 to odorant (luciferase) (MOR31-4): responded
response of MOR203-1 to odorant (luciferase) (MOR203-1): responded to high concentrations
response of S46 to odorant (luciferase) (OR-S46): responded
response of MOR23-1 to odorant (luciferase) (MOR23-1): responded

CCCCCCCC(=O)O [octanoic acid]
response of single olfactory neurons S6 and S79 to odorant [2]: only the olfactory neuron S79 responded
response of OR-S6/S79 to odorant (luciferase) (OR-S6/S79): not
